The text below walks through data of the RepoRT retention time repository (doi:10.1093/pcp/pcn183).

Molecules are shown by their SMILES. Counter-ions that a name gives are not always drawn.

A short description of this data set: RP, Waters ACQUITY UPLC BEH C18, 38 °C, 0.24 mL/min; A: water + 0.1% formic acid, pH 3; B: acetonitrile + 0.1% formic acid, pH 3; gradient (min/%B) 0/0 0.25/0 0.4/9 0.8/17 1.9/100 2.1/100 2.11/0 3/0. Conditions: stereoisomer not certain.
Take `Cc1cc2nc3c(=O)[nH]c(=O)nc-3n(CC(O)C(O)C(O)COP(=O)(O)O)c2cc1C` (configuration not stated): the LC retention time turned out to be 1.19 min.
As for `N[C@@H](Cc1ccc(O)cc1)C(=O)O` [L-Tyrosine], the LC retention time was determined as 0.61 min.
Next, `O=C(O)CCl` [Chloroacetic acid]: 0.36 min; `NOCC(=O)O` [Aminooxyacetic acid Hemihydrochloride]: 0.17 min; `COc1cc(-c2[o+]c3cc(O)cc(OC4OC(CO)C(O)C(O)C4O)c3cc2OC2OC(CO)C(O)C(O)C2O)cc(OC)c1O` (configuration not stated) [Malvin chloride]: 1.15 min.
The same measure for `COc1cc(-c2oc3cc(O)cc(O)c3c(=O)c2OC2OC(CO)C(O)C(O)C2O)cc(OC)c1O` (configuration not stated) [syringetin-3-O-glucoside]: 1.45 min; for `CS(=O)(=O)O` [Methanesulfonic acid solution]: 0.17 min.
Consider `NC(=O)CC[C@H](N)C(=O)O` [L-Glutamine], for which the LC retention time was 0.17 min.
Take `OCC1OC(Oc2cc3c(O)cc(O)cc3[o+]c2-c2cc(O)c(O)c(O)c2)C(O)C(O)C1O` (stereo not drawn) [Delphinidin-3-O-beta-glucopyranoside]: the LC retention time was 1.16 min.
In the case of `CN(C)C(=N)N=C(N)N` [1,1-Dimethylbiguanide hydrochloride], the LC retention time is 0.21 min.
In the case of `CS(=O)(=O)CCC(N)C(=O)O` [L-Methionine sulfone], the LC retention time was found to be 0.18 min.
On to `c1cnc2c(c1)ccc1cccnc12` [1,10-Phenanthroline monohydrate], for which the LC retention time was 1.18 min.
Next, `N[C@H](CC(=O)O)Cc1ccccc1` [L-beta-Homophenylalanine hydrochloride]: 1.16 min; `OCC1OC(OCC2OC(O)C(O)C(O)C2O)C(O)C(O)C1O` (configuration not stated): 0.19 min.
In the case of `CC1OC(OCC2OC(Oc3cc4c(O)cc(O)cc4[o+]c3-c3cc(O)c(O)c(O)c3)C(O)C(O)C2O)C(O)C(O)C1O` (configuration not stated), the LC retention time was 1.15 min.
Next, `O=CC(O)CO` (racemic) [DL-Glyceraldehyde]: 0.17 min; `OCC1OC(OC2C(CO)OC(O)(CO)C2O)C(O)C(O)C1O` (configuration not stated): 0.19 min; `NCC(=O)CCC(=O)O` [delta-Aminolevulinic acid hydrochloride]: 0.18 min.
Take `CC(C)(CO)C(O)C(=O)NCCC(=O)O` (stereo not drawn) [Calcium (+)-pantothenate]: the LC retention time amounted to 1.11 min.
For `Nc1nc2c(ncn2C2OC(COP(=O)(O)O)C(O)C2O)c(=O)[nH]1` (configuration not stated) [Guanosine-5'-monophosphate], the LC retention time worked out at 0.44 min.
On to `O=C(O)CNC(=O)Cc1ccccc1` [Phenaceturic acid], for which the LC retention time was determined as 1.36 min.
Turning to `O=C(O)CNC(=O)c1ccccc1` [Hippuric Acid], the LC retention time stood at 1.29 min.
As to `CCC=CCC1C(=O)CCC1CC(=O)OC` (configuration not stated) [Methyl Jasmonate], the LC retention time came out at 1.93 min.
With `NC1(C(=O)O)CC1` [1-Aminocyclopropane-1-carboxylic acid], the LC retention time came to 0.18 min.
The same measure for `Nc1ccn(C2OC(CO)C(OP(=O)(O)O)C2O)c(=O)n1` (configuration not stated) [Cytidine-3'-monophosphate]: 0.36 min; for `O=C(O)/C=C/c1ccc(O)cc1` [4-Coumaric acid]: 1.41 min; for `O=C(O)C1=CCNCC1` [Isoguvacine hydrochloride]: 0.18 min.
Regarding `Cc1cnc(=O)[nH]c1N` [5-Methylcytosine hydrochloride], the LC retention time was 0.25 min.
For `CS(=O)CCCCN=C=S` (racemic) [D,L-sulforaphane], the LC retention time is 1.44 min.
`NCCCC[C@H](N)C(=O)O` [L-(+)-Lysine]: the LC retention time came out at 0.15 min.
The same measure for `CCCCCCC(=O)O` [n-heptanoic acid]: 0.29 min.
Turning to `O=C1CCNC(=O)N1` [5,6-Dihydrouracil], the LC retention time was 0.2 min.
Turning to `OCC1OC(OC2C(O)C(CO)OC2(CO)OC2OC(CO)C(O)C(O)C2O)C(O)C(O)C1O` [D-(+)-Melezitose hydrate], the LC retention time was found to be 0.21 min.
The same measure for `O=C1O[C@H]([C@@H](O)CO)C(O)=C1O` [L-Ascorbic acid]: 1.15 min; for `O=C(O)C[C@@H]1CCCN1` [L-beta-homoproline-HCl]: 0.25 min; for `C[C@@H](O)[C@H](N)C(=O)O` [L-Threonine]: 0.17 min.
Consider `OCC1OC(OCC2OC(O)(CO)C(O)C2O)C(O)C(O)C1O` (configuration not stated) [Palatinose Monohydrate], for which the LC retention time is 0.19 min.
Regarding `OC[C@@H](O)[C@H](O)CO` (racemic) [DL-Threitol], the LC retention time stood at 0.17 min.
`C[n+]1cccc(C(N)=O)c1` [1-Methylnicotinamide chloride]: the LC retention time worked out at 0.18 min.
Take `COc1ccc(C2CC(=O)c3c(O)cc(OC4OC(COC5OC(C)C(O)C(O)C5O)C(O)C(O)C4O)cc3O2)cc1O` (configuration not stated) [Hesperidin]: the LC retention time came out at 1.45 min.
As for `O=c1c(-c2ccc(O)cc2)coc2cc(O)ccc12` [Daidzein], the LC retention time amounted to 1.57 min.
For `CC1OC(OC2C(Oc3cc(O)c4c(=O)c(O)c(-c5ccc(O)cc5)oc4c3)OC(CO)C(O)C2O)C(O)C(O)C1O` (configuration not stated) [kaempferol-7-O-neohesperidoside], the LC retention time came out at 1.44 min.
Turning to `COc1cccc(C=CC(=O)O)c1` [3-Methoxycinnamic acid], the LC retention time stood at 1.67 min.
With `O=C(O)C(O)c1cccc(O)c1` (configuration not stated) [3-Hydroxymandelic acid], the LC retention time was 1 min.
`OCCNCCO` [Diethanolamine]: the LC retention time worked out at 0.16 min.
The same measure for `N[C@@H](CCO)C(=O)O` [L-Homoserine]: 0.17 min; for `N=C(N)c1ccccc1` [Benzamidine hydrochloride hydrate]: 0.78 min.
Regarding `C[N+](C)(C)CCOP(=O)(O)OP(=O)([O-])OCC1OC(n2ccc(N)nc2=O)C(O)C1O` (configuration not stated), the LC retention time is 0.2 min.
Consider `N#Cc1cccnc1` [3-cyanopyridine], for which the LC retention time worked out at 1.18 min.
Regarding `O=c1ccn(C2CC(O)C(COP(=O)(O)O)O2)c(=O)[nH]1` (configuration not stated) [2'-Deoxyuridine-5'-monophosphate disodium salt], the LC retention time was 0.4 min.
For `O=S(=O)(O)CCN1CCN(CCS(=O)(=O)O)CC1` [PIPES], the LC retention time worked out at 0.16 min.
`O=c1c(OC2OCC(O)C(O)C2O)c(-c2ccc(O)c(O)c2)oc2cc(O)cc(O)c12` [Quercetin-3-D-xyloside]: the LC retention time was determined as 1.43 min.
As for `Cc1ncc(COP(=O)(O)O)c(C=O)c1O` [pyridoxal-5'-phosphate hydrate], the LC retention time stood at 0.39 min.
As for `Cn1cncc1C[C@H](N)C(=O)O` [3-Methyl-L-histidine], the LC retention time amounted to 0.15 min.
In the case of `CC(=O)Nc1ccc(O)cc1` [Acetaminophen], the LC retention time was found to be 1.15 min.
The same measure for `Nc1ccccc1C(=O)CC(N)C(=O)O` [L-Kynurenine]: 1.1 min; for `CC1OC(OCC2OC(Oc3c(-c4ccc(O)cc4)oc4cc(O)cc(O)c4c3=O)C(O)C(O)C2O)C(O)C(O)C1O` (configuration not stated) [kaempferol-3-O-rutinoside]: 1.42 min.
